In patent US7258861B2, “TNF-derived peptides for use in treating oedema” (Innogenetics N.V., priority 2001, dated 2007):
“And” between values parts separate entries of the source, which are not always exact repeats. Identical values can stand only once. Blank lines part the entries; values can stand above or below the molecule they belong to. Positions of bridges follow the written chain, without caps; N, C: chain ends. Residues, ends and D or L forms follow the SMILES beside them. No end group written: not given here. *: point of attachment. Biotin = O=C1N[C@H]2[C@H](CS[C@H]2CCCCC(=O)*)N1

Tests used:
[1] = test system: ex vivo instilled rat lung; assay: Ex vivo rat flooded lung, model of hydrostatic edema; conditions: for activity in fluid clearance / clearing alveolar fluid content ex vivo: summary in words; for clearing alveolar fluid content ex vivo: after intratracheal instillation
Method: In this model edema is induced by instillating 2 ml of 0.9% NaCl solution intratracheally. Alternatively, edema formation can be modulated by varying the height of the venous outflow and the perfusion buffer containing reservoir, or alternatively by varying the time the lung is exposed to the elevated pressure. […] The clearance of alveolar fluid from the lung is calculated by means of measuring the concentration of HSA, which is added to the instillate over time. Alternatively, the over time weight loss as a measure of edema resorption (high weight loss is high liquid clearance), of the artificially instilled lung can be measured. The lung tidal volume, compliance and weight are monitored continuously during the experiment. At the end of the experiment bronchoalveolar fluid and supernatant of lung homogenate is taken for measurement of inflammatory mediators.
The lungs of female Wistar rats (weight 200–250 g; Harlan-Winkelmann, Borchen, Germany) are prepared after terminal i.p. anesthesia by 160 mg/kg pentobarbitural —Na (Merial Ltd, Halbermoos, Germany) and perfused as described by Uhlig and Wolin (1994), and by Uhlig and von Bethmann (1997). All equipment is obtained from Hugo Sachs Electronics (March-Hugstetten, Germany). […] As perfusion medium, a Krebs-Henseleit buffer (38° C.) containing 2% bovine serum albumin (Fraction V, Scrva. Heidelberg, Germany), 0.1% glucose (Riedel-de-Haën Inc., Seelze, Germany), and 0.3% HEPES (ICN Biomedicals Inc., Ohio, USA) is used. The total amount of recirculating buffer is 100 ml. The lungs are suspended by the trachea and ventilated by negative pressure ventilation (inspiratory pressure: −7 cm H2O, expiratory pressure: −2 cm H2O) with 80 breaths per minute resulting in a tidal volume of approximately 2 ml. Every 5 minutes, a deep inspiratory breath (−20 cm H2O) is performed. Artificial thorax chamber pressure is measured with a differential pressure transducer (Validyne DP 45-14), and an air flow velocity with a pneumotachograh tube (Fleisch Type 0000) connected to a differential pressure transducer (Validyne DP 45-15). The perfusate flow (Narcomatic RT-500) and the arterial and venous pressure (Statham P23BB) are continuously monitored. The pH of the perfusate before entering the lung is kept at 7.25 to 7.35 by automatic bubbling of the buffer with CO2 as soon as the pH exceeds this range. A weight transducer is integrated into the chamber lid which allows the continuous assessment of lung weight. Data are recorded on a Pentium II computer using the Mathlab Sofware package (Mathworks, Inc., Nattick Mass., USA). For lung mechanics, the data are analyzed by applying the following formula: P=1/C*VT+RLdV/dT
Where P is chamber pressure, C pulmonary compliance, VT tidal volume, and RL airway resistance. All lung physiology parameters were normalized to time point 0, i.e. after the end of the preconditioning perfusion of 40 minutes.

[2] = test system: lung microvascular endothelial cells; assay: Whole-cell patch clamp, membrane conductance in lung microvascular endothelial cells; type: cell-based, mouse; conditions: 30 min preincubation at acidic pH (pH 6); TNF, mutTNF 100 ng/ml, peptides 100 μg/ml
Source text: Animals, cells and reagents. Male CBA/J or C57BL/6 mice, as well as male TNFR ½^0/0 C57BL/6 mice deficient in TNF receptors (Bruce et al., 1996) provided by H. Bluethmann, F. Hoffmann-La Roche, Basel, Switzerland, were used at the age of 8–10 weeks. Their care was in accordance with institutional guidelines. Lung microvascular endothelial cells were isolated from CBA/J mice and characterized as described (Jackson et al., 1990) using magnetic beads (Dynabeads M-450, Dynal, Oslo, Norway), covalently bound to a purified rat-anti-mouse PECAM-1 monoclonal antibody (donated by B. Imhof, University of Geneva). Microvascular lung endothelial cells were resuspended in DMEM containing 2 mM L-glutamine, 100 U/ml penicillin, […], 20% FCS, 40 U/ml heparin and […] endothelial cell growth supplement (Brunschwig Chemie, Basel, Switzerland). For patch clamp experiments, cells were plated onto 35×10 mm easy grip Petri dishes (Beckton Dickinson, Plymouth, UK), pre-coated with 0.2% gelatin (Sigma, Buchs, Switzerland). Resident peritoneal macrophages, isolated in ice cold RPMI containing antibiotics and 10 U/ml Heparin, were left to adhere onto 35×10 mm easy grip Petri dishes for 4 h, after which the non-adherent cells were removed. Cells were grown in RPMI 1640 containing 2 mM L-glutamine, 100 U/ml penicillin, 10 μpg/ml streptomycin and 10% fetal bovine serum (all from Gibco). For patch clamp, the macrophages ware used 24 h after isolation.
Electrophysiology. Cells were pretreated for 30 min with TNF, mutTNF and tip peptides at 37° C. in a buffer consisting of 145 mM NaCl, 3 mM KCl, 2mM CaCl2, 2mM MgCl2, 10 mM D-glucose, and 10mM Hepes, and pH-adjusted with NaOH to required value. Cells were then washed with the same buffer pH-adjusted at 7.3, and experiments were performed using the tight-seal, whole-cell recording technique. Currents were recorded with an Axopatch-200A amplifier (Axon Instrument Inc, Foster City, Calif., USA), low pass-filtered at 1 kHz. Digitalization and off-line analysis was performed using the WCP program (J. Dempster, Strathclyde Electrophysiology Software, Glasgow, UK). Patch pipettes were pulled from borosilicate glass and fire polished to have an open resistance of 3–5 MW with an internal solution containing […], 2 mM MgCl2, 10mM EGTA, 20 mM TEA-Cl, 10 mM D-glucose 10 mM Hepes, pH-adjusted to 7.3 with CsOH. Series resistances were kept under 10 MW. Capacitance and series resistance compensation were applied and set to 70%. All experiments were done at room temperature. Results are given as mean ±SEM, unless otherwise indicated. Analysis of variance was performed on currents and membrane conductance values, with post-hoc Dunn-Bonferroni test for significance of differences observed between two groups. A P value of 0.05 was considered significant.

[3] = test system: left lung of Fischer (F344) rats; assay: Rat model of lung reperfusion injury (warm ischemia and reperfusion); type: in vivo
Method: In a modification of the model of Ohno et al. (1993) male Fischer (F344) rats (200–250 g) undergo clamping of the left pulmonary artery, pulmonary vein and main bronchus for 36 minutes of warm ischemia. After reperfusion of the left lung, the right lung is occluded to assess the function of the left lung for 90 minutes. The peptide is given at 3 minutes after reperfusion by either instillation or intravenous injection via the subclavian vein.
• 1. Anaesthesia of the rat in a glass chamber, 4% Halothane and Oxygen 4/min. • 2. Intubation of the rat with a 1.8 mm catheter, • 3. Shaving the fur on the abdomen and left side of the animal. • 4. Ventilation via the tracheal tube 100/min, 2.5 ml 20% oxygen, Harvard Rodent Ventilator (Harvard Apparatus, South Natick, Mass.), PEEP 5 mm H2O. • 5. A left thoracotomy is carried out in the in 4th intercostal space. • 6. Dissection of the left lung hilar region. • 7. Microvascular clips are placed around the left pulmonary artery (PA), Pulmonary vein (PV) and left main bronchus (B) to induce warm ischemia of the left lung. Small circulation is still ongoing through the right lung. This is the start of the Warm Ischemia Time (WIT). • 8. Anaesthaesia is maintained with 2% Halothane, 40% Oxygen. • 9. A provisory Z suture is made to temporary close the thoracotomy and a gaze sponge is put on the animal to decrease warmth loss. • 10. Near the end of the WIT, a thoracophrenolaparatomy in the midline with thorough electrocaterisation. (two peans on the sternum). • 11. Putting 2-0 Softsilk on the trachea around the intubation tube. • 12. Dissection of the right hilar elements. • 13. Taking away microvascular clips from the left hilar elements. End of WIT of the left lung after 36 minutes. • 14. Putting microvascular clips on right PA and B. Small circulation only through left lung. Start developing of left oedema time (LLOT). • 15. After 3 minutes of LLOT: instillation of the drug in 0.5 ml of 0.9% saline solution (Baxter) or injection of the drug in 0.25–0.3 ml of 0.9% saline through the subclavian vein. • 16. After 6, 30, 60 and 90 minutes of LLOT, puncture of the Aortic Arch (AA) with needle for blood gas analysis in Radiometer ABL 700 Serie, (Denmark). • 17. After each puncture the AA puncture hole is pressed with a cotton swab. • 18. Blood gas analysis is taken every time from AA (the heart rate should be over 60). • 19. After the last blood gas analysis (90 minutes), both lungs are flushed via the PA with 20 ml of 0.9% saline at a pressure of 20 cm H2O. […] The heart-lung block is excised for storage under formaline or in the freezer awaiting immunohistopathological analysis. Alternatively, the lung can be excised without flushing to assess wet to dry ratio's. Results (FIG. 7)

[4] = test system: isolated rat lungs; assay: Isolated blood perfused flooded rat lung (weight, lung mechanics, PV curves, histology); conditions: pretreated lungs after flooding and 2 hours reperfusion
Method: Rats. For the ex vivo experiments, 31 Sprague-Dawley rats (300 to 350 g) were tracheotomized and mechanically ventilated (40% oxygen in air) under isoflurane anesthesia. The experimental protocol was reviewed and approved by the Ethics Committee for Animal Research and by the Veterinary Office of our institution. The femoral vessels were cannulated for blood sampling, fluid replacement, and continuous arterial blood pressure monitoring. Following anticoagulation (1.5 IU/g i.v. heparin), 20 ml of blood were withdrawn and replaced by an equal volume of dextran-40 (Macrodex 10% in normosaline) to serve as priming volume for the isolated perfusion circuit. The heart-lung block was prepared as described by Ma et al., 2000, weighed and assigned to one of four groups. […] The lungs were suspended, mechanically ventilated, and perfused at constant pressure with autologous blood as described by Ma et al., 2000.
An inspiratory and expiratory quasi-static pressure-volume (PV) curve was performed at the end of the 2-hour reperfusion period by inflating and then deflating the lungs at a constant rate (0.3 ml/sec) using an automated infusion pump. A sigh was applied in all groups every 15 minutes to minimize atelectasis formation. The blood pH was maintained between 7.3 and 7.5 and, if necessary, corrected with sodium bicarbonate 8.4% or a change of the inspired CO2 as required by the blood gas analysis. Every 30 minutes, a blood sample was collected for blood gas analysis as well as for hematocrit and electrolyte concentration.
Inclusion criteria. Immediately following the start of reperfusion, the preparation had to fulfill three technical inclusion criteria: • 1) left atrial pressure (LAP) 5-10 mmHg; • 2) peak airway pressure (AWP) <15 cmH2O; and • 3) pulmonary blood flow (PBF) >10 ml/min. […] The included lungs were then flooded with gentle intratracheal instillation of 2 ml normal saline and the recorded variables measured for 2 subsequent hours.
Histological analysis. Random lung samples were fixed for light and electron microscopy and analyzed by pathologists blinded to the lung's protocol group assignment.

[5] = measured 80 minutes after instillation

Molecule: CTPEGAEC (Biotin-CTPEGAEC; cysteine pairing not given here; listed as Mus musculus) [STip]
activity in fluid clearance [1, 5]: equally active
Weight loss of ex vivo instilled rat lung over 80 min ([1]; synthetic peptide 1000 μg/lung): 507 mg and 607 mg and 781 mg and 703 mg and 744 mg
Weight loss of ex vivo instilled rat lung over 100 min ([1]; synthetic peptide 1000 μg/lung): 836 mg and 535 mg and 684 mg and 891 mg and 849 mg
whole cell current / membrane conductance [2]: failed to induce a voltage-dependent current

Molecule: CGQRETPEGAEAKPWY (Biotin-CGQRETPEGAEAKPWY) [linear hum Ltip]
activity in fluid clearance [1, 5]: equally active
activity in fluid clearance ([1]; measuring for 100 minutes after instillation): less active
Weight loss of ex vivo instilled rat lung over 80 min ([1]; synthetic peptide 1000 μg/lung): 498 mg and 863 mg and 585 mg and 462 mg

Molecule: CC(C)(C)NCC(O)c1cc(O)cc(O)c1 (centres unmarked) [Terbutaline, reference compound]
Weight loss of ex vivo instilled rat lung over 80 min ([1]; Terbutalin 1 mM alone, individual lungs): 1035 mg and 872 mg and 1219 mg and 1119 mg and 822 mg and 1075 mg and 675 mg and 730 mg and 1000 mg and 923 mg and 880 mg and 702 mg
Weight loss of ex vivo instilled rat lung over 100 min ([1]; Terbutaline 1 mM + Chitobiose 500 μg): 800 mg
Weight loss of ex vivo instilled rat lung over 100 min ([1]; Terbutaline 1 mM alone, individual lungs): 805 mg and 1223 mg and 1425 mg and 1370 mg
clearing alveolar fluid content ex vivo [1]: capable of clearing alveolar fluid content

Molecule: CGQREAPAGAAAKPWYC (disulfide 1-17) [hum mut Tip, reference compound]
clearing alveolar fluid content ex vivo [1]: inactive
pO2 blood gas levels ([3]; 6 to 90 minutes of LLOT, cyclic hum Ltip 500 μg/kg to 5 μg/kg, hum mut Tip 500 μg/kg): followed completely the values seen in the control animals
gain in pO2 blood gas ([3]; iv application): no effect

endothelial flaps and epithelial blebs (electron microscopy) [4]: less evident
Molecule: CC(C)C[C@@H]1NC(=O)[C@H](CCC(=O)O)NC(=O)[C@H](Cc2c[nH]c3ccccc23)NC(=O)[C@@H]2CCCN2C(=O)[C@H](CCCCN)NC(=O)[C@H]([C@@H](C)O)NC(=O)CNC(=O)[C@@H](N)CSSC[C@@H](C(=O)O)NC(=O)[C@H](Cc2ccc(O)cc2)NC(=O)[C@H](C)NC(=O)[C@@H]2CCCN2C(=O)[C@H](CCCCN)NC(=O)[C@H](CCC(=O)O)NC(=O)[C@H](CC(=O)O)NC(=O)[C@@H]2CCCN2C(=O)CNC1=O [cyclic mu scrambl Tip, reference compound] (H-CGTKPWELGPDEKPAYC-OH; disulfide 1-17)

Molecule: GG-CCIPKDAPAGAALKPWYC [mutTip, reference compound]
whole cell current / membrane conductance [2]: inactive

Molecule: GG-COTKPWELOPDEKPAYC [scramblTip, reference compound]
whole cell current / membrane conductance [2]: inactive
